In the assay the target is T1, HCV NS3-4A protease (Hepatitis C virus genotype 1a, UniProt P27958).
T1 construct: HCV NS3-4A protease
The assay is described as follows: HCV NS3-4A protease assay in vitro (FRET-S substrate). Type of assay: biochemical. The note with it: HCV NS3-4A protease inhibition, 37° C., class symbols; read-out: NS3-NS4A IC50. The procedure:
HCV NS3-4A Protease Assay In Vitro.
The assay was conducted in Buffer A containing 30 mM NaCl, 5 mM CaCl2, 10 mM DTT, 50 mM Tris (pH7.8), using the Ac-Asp-Glu-Asp(EDANS)-Glu-Glu-Abu-ψ-[COO]-Ala-Ser-Lys (DABCYL)-NH2 (FRET-S) fluorescent peptide (AnaSpec, USA) as substrate. Briefly, 140 μL buffer A, 20 μL compounds dissolved in buffer A with different concentration and 20 μL HCV NS3-4A protease diluted in buffer A were added into 96-well plate respectively and mixed well. The reaction was initiate with adding 20 μL of FRET-S. Reactions were continuously monitored at 37° C. using a BMG Polarstar Galaxy (MTX Lab Systems, Inc. USA), with excitation and emission filters of 355 nm and 520 nm, respectively. The 50% inhibitory concentration (IC50) was calculated with Reed & Muench methods.

Results on four compounds are retold here after patent US8815796B2, “Polyheterocyclic compounds highly potent as HCV inhibitors” (AB Pharma Ltd., priority 2010, dated 2014).

pIC50: −log10 of the molar value.

T1 sequence (P27958 1027-1657): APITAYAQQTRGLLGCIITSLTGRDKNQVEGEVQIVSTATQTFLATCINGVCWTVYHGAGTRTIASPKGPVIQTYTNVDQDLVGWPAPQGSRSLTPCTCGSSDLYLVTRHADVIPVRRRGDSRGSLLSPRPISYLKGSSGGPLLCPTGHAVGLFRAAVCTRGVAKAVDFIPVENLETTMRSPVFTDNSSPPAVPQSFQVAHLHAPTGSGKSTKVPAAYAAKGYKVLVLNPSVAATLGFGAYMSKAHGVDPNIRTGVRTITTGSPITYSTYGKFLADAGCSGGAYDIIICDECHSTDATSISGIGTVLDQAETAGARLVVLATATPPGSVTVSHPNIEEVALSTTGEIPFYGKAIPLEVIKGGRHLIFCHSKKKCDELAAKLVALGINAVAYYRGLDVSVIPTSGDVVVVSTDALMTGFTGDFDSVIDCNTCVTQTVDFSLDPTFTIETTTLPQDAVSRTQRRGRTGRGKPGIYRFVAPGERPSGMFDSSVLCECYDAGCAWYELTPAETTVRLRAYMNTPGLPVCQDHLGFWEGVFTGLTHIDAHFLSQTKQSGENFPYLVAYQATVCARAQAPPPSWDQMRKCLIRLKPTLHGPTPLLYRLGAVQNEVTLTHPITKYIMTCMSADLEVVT
T1 sequence (P27958 1658-1711): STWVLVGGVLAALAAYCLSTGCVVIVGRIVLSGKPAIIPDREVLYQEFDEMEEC

As to `CC(C)(C)OC(=O)N[C@H]1CCCCC/C=C\[C@@H]2C[C@@]2(C(=O)NS(=O)(=O)C2CC2)NC(=O)[C@@H]2C[C@@H](OC(=O)N3Cc4ccc5c(c4C3)OCCO5)CN2C1=O` [Compound 12b], the pIC50 – broadly, the IC50 on a negative log10 scale, so that one unit is a factor of ten – is over 7.52. With `O=C1N[C@]2(C(=O)NS(=O)(=O)C3CC3)C[C@H]2/C=C\CCCCC[C@H](Nc2ccccc2)C(=O)N2C[C@H](OC(=O)N3Cc4cc5c(cc4C3)OCO5)C[C@@H]12` [Compound 15a], the pIC50 is over 7.52.

Turning to `CC(C)(C)OC(=O)N[C@H]1CCCCC/C=C\[C@@H]2C[C@@]2(C(=O)O)NC(=O)[C@@H]2C[C@@H](OC(=O)N3Cc4ccc5c(c4C3)OCCO5)CN2C1=O` [Compound 11b], the pIC50 was under 6.70. In the case of `CC[C@H]1C[C@@]1(NC(=O)C1C[C@@H](OC(=O)N(C)Cc2ccc3c(c2)OCO3)CN1C(=O)[C@@H](NC(=O)OC1CCCC1)C(C)(C)C)C(=O)NS(=O)(=O)C1CC1` (stereo partly shown) [Compound 30ap], the pIC50 was over 7.52.
